Source: patent US6673814B2, “Delivery systems and methods for noscapine and noscapine derivatives, useful as anticancer agents” (Emory University, priority 1997, dated 2004)

Columns and labels:
[1] = system: HL-60 cells; test: Apoptosis of HL-60 cells, DAPI staining of nuclear chromatin; assay type: cell-based; details: for Apoptic Cell Percentage: 24 hours
Protocol: Morphological changes in the nuclear chromatin of HL-60 cells undergoing apoptosis were detected by staining with 4′, 6-diamidino-2-phenylindole (DAPI). In brief, 0.5×10^6 to 3×10^6 cells were fixed with 4% glutaraledehyde, 0.2% Triton x-100, in PBS and incubated at room temperature for 10 min., then centrifuged at 1000×9 for 10 min., resuspended in 20 μ1 0.1% DAPI ethanol. Following 15 min. incubation at room temperature, at 10 μl aliquot was placed on a glass slide, and 400 cells per slide were scored for the incidence of apoptotic chromatin changes with a fluorescence microscope.

[2] = system: tumors derived from malignant melanoma cells; test: Melanoma tumor progression in animals; assay type: in vivo
[3] = system: Hela cells; test: M phase arrest, alpha-tubulin immunofluorescence and flow cytometry, Hela cells; assay type: cell-based; details: 20 μM noscapine, 24 hr
Protocol: (§1) Hela cells were grown in DMEM supplemented with 10% fetal calf serum, 1 mM L-glutamine and 1% penicillin/streptomycin. The tumor cell line E-G7-OV A […] [Moore, M. W., et al., Cell. 54, 777 (1988)] was grown in RPM1 1640 with 10% fetal calf serum, 1% sodium pyruvate, 1 mM L-glutamine, 0.1% gentamycin, 50 μtM β-mercaptoethanol. Cells were grown at 37° C. in a 5% CO2 atmosphere. Cell viability was assessed by trypan blue exclusion analysis. Cell numbers were determined using a hemacytometer, C57BL/6 […] mice, 8 to 12 weeks of age, were obtained from Harian Sprague Dawley, Inc. (Indiananapolis, Ind.). Mice were maintained on standard laboratory chow and water ad libitum, in a temperature and light controlled environment. For immunofluorescence, both Hela and thymocyte cells were treated identically except the Hela cells were grown onto glass coverslips while EL4 thymocytes were put on glass coverslips after fixation. […]
(§2) Then cells were washed with 1% BSA-PBS solution for 10 min. at room temperature before incubating with a 1:200 dilution of a rhodamine labeled goat anti-mouse IgG antibody at room temperature for 45 min., then the coverslips were rinsed by 1% BSA/PBS solution for 10 min. and labeled by DAPI (4′, 6-diamino-2-phenyliudole) for another 10 min. at room temperature. […] Cells were examined with a fluorescence microscope. […] The samples were read on a cytometer.

[4] = system: thymocyte cells; test: M phase arrest, alpha-tubulin immunofluorescence and flow cytometry, thymocyte cells; assay type: cell-based; details: 20 μM noscapine, 24 hr
Protocol: as §1, §2

[5] = system: lymphocyte cells; test: Apoptosis initiation: oligonucleosomal DNA fragmentation, DAPI staining, nick end labeling; assay type: cell-based; details: noscapine treatment 0 to 24 hr
Protocol: Oligonucleosomal fragmentation of genomic DNA was determined according to Walton, M. I. et. al., Cancer. Res. 53, 1853 (1993). An aliquot of 3.3×10^6 cells in 10 ml medium was incubated with […] for different time periods ranging from 0 to 24 hr. At the end of incubation, cells were pelleted and washed twice with ice-cold PBS, and lysed in 250 μl 1% (v/v) NP-40 detergent containing 0.5 mg/ml proteinase K in PBS solution on ice for 60 min. Samples were centrifuged, and the supernatants were removed and incubated with 5 μl 10 mg/ml Rnase A at 37° C. for 40 min. An aliquot of 1 ml anhydrous ethanol was added, tubes were placed at −20° C. for 20 min., then centrifuged to pellet DNA. […]
Morphological changes in the nuclear chromatin of cells undergoing apoptosis were detected by staining with 4′, 6-diamidino-2-phenylindole (DAPI). […] Following 15 min. incubation at room temperature, a 10 μl aliquot was placed on a glass slide, and 400 cells per slide were scored for the incidence of apoptotic chromatin changes with a fluorescence microscope. […]
After the slides were rinsed with PBS, 50 μl converter-POD solution was added on samples and incubated for 30 min. at 37° C. […] After the slides were rinsed with PBS for another 3 times, coverslips were mounted and analyzed with a light microscope.

[6] = system: E.G7-OVA cells; test: Inhibition of tumor growth, E.G7-OVA tumors in C57BL/6 mice; assay type: in vivo; details: 3 mg noscapine every day for three weeks, intraperitoneally or intragastric; vs saline
Protocol: C57BL/6 mice were injected subcutaneously in the right flank with 2×10^6 E.G7-OVA cells. Three days later, mice were injected intraperitoneally, every day for three weeks, either with 200 μl saline (n=10), or with 3 mg noscapine dissolved in 200 μl saline (n=10),. Third group of mice (n=10) was fed 3 mg noscapine via intragastric (i.g.) intubation using a 1 ml syringe fitted with a 20 gauge stainless steel ball point needle. After three weeks, all mice were sacrificed by cervical dislocation. Tumors were removed and weighted. Tumor weights were individually plotted and comparisons between control and treatment groups were analyzed by the Student's test.

[7] = system: solid lymphoid tumors; test: Apoptosis in solid lymphoid tumors induced in mice, Haemotoxline and Eosine staining; assay type: in vivo; details: noscapine treated mice, microscopic examination
[8] = molecular target: bovine brain tubulin; test: Tubulin binding by fluorescence titration, Scatchard plot
Protocol: (§3) Phosphocellulose purified bovine brain tubulin was employed throughout these biophysical experiments. Fluorescence titration for determining binding constants was performed according to Peyrot, V. et al., Biochemistry 31, 11125 (1992). In brief; at room temperature, 2 μM tubulin in 100 mM PIPES, 2 mM EGTA, 1 mM MgCl2 was excited at 278 nm, and the fluorescence emission spectra were recorded with bandwidths 2 nm. […] The concentration of noscapine was raised in increments of 0.5 μM, until the decrease in the fluorescence intensity was saturated. The value of the dissociation constant and the number of sites were obtained from Scatchard plots using the equation, […], where r is the ratio of the concentration of bound ligand to the total protein concentration and n is the number of binding sites. Circular dichroism (CD) spectra measurements were performed in a spectroscometer, in cells (0.1 cm path) at 25° C. Microtubule assembly was recorded on a spectrophotometer with thermocontroler. The cuvettes (0.4 cm path) containing 100 mM PIPES, 2 mM EGTA, 1 mM MgCl2 and 1 mM GTP (G-PEM buffer), and 20 μM noscapine/DMSO were kept at room temperature before addition of tubulin and shifting to 37° C. […] The assembly was monitored by measuring the changes in turbidity at 0.5 min. intervals. Noscapine was dissolved in DMSO at 0.8 mM and stocked at 4° C. […]

[9] = system: bovine brain tubulin; test: Microtubule assembly, turbidity at 350 nm; assay type: biochemical; details: 20 μM noscapine, 37° C., G-PEM buffer
Protocol: as §3

| Kd ([8]; 2 μM tubulin, room temperature, Scatchard plot, read-out: apparent dissociation constant (Kd)) [nM] | Molecule | initiation of apoptosis [1] | Apoptic Cell Percentage ([1]; 20 μM in DMSO, first trial) [%] | Apoptic Cell Percentage ([1]; 20 μM in DMSO, second trial) [%] | Apoptic Cell Percentage ([1]; 50 μM in DMSO) [%] | reduction of tumor volume compared to untreated animals [2] [%] | M phase arrest of microtubule arrays [3] | M phase arrest of microtubule arrays [4] | DNA degradation (gel electrophoresis of fragmented genomic DNA, staining of treated cells) [5] | tumor weight [6] | apoptotic morphologies of tumor cells [7] | fluorescence quenching of tubulin ([8]; excitation 278 nm) | tubulin assembly (absorbance at 350 nm) [9] |
| --- | --- | --- | --- | --- | --- | --- | --- | --- | --- | --- | --- | --- | --- |
| – | 1,3-dihydro-4,5-dimethoxy-1-[1-(8-methoxy-2-methyl-6,7-methylenedioxy-1,2,3,4-tetrahydroisoquinolinyl)] isobenzofuran-BH3 [Compound 3] | initiate apoptosis | 37 | 28 | 39 | – | – | – | – | – | – | – | – |
| – | COc1ccc2c(c1OC)CO[C@@H]2[C@H]1c2c(cc3c(c2OC)OCO3)CCN1C [Compound 4, 1,3-diliydro-4,5-dimethoxy-1-[1-(8-methoxy-2-methyl-6,7-methylenedioxy 1,2,3,4-tetrahydroixoquinolinyl)]isobenzofuran] | initiate apoptosis | 48 | 32 | 52 | – | – | – | – | – | – | – | – |
| 1860 | COc1ccc2c(c1OC)C(=O)O[C@@H]2[C@H]1c2c(cc3c(c2OC)OCO3)CCN1C [Noscapine] | initiate apoptosis | 30 | 17 | 27 | ~83 | microtubule arrays are arrested in M phase | microtubule arrays are arrested in M phase | progressive DNA degradation with increasing time | significantly reduced tumor weight | many cells in noscapine treated mice with apoptotic morphologies | affords fluorescence quenching of tubulin | promotes tubulin assembly |
